pIC50: −log10 of the molar value.

Data on 20 compounds can be found in patent US9233946B2, “Sulfonamide compounds” (KANCERA AB, priority 2010, dated 2016).

Sequence of PFKFB4 (Q16877 whole entry): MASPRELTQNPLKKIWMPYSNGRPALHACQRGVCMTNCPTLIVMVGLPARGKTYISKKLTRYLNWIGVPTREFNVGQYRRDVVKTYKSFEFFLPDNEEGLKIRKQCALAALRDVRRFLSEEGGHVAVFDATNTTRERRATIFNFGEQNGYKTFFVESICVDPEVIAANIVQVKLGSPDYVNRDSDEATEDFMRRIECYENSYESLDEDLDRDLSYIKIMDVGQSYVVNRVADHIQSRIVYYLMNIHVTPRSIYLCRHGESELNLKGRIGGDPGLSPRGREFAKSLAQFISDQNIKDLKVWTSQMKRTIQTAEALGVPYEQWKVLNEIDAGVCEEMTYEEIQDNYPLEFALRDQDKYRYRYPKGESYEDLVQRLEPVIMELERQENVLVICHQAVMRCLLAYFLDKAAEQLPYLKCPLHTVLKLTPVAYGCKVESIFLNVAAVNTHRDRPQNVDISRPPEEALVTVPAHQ

One experiment addresses PFKFB4 (Homo sapiens (Human), UniProt Q16877). The experiment is described as follows: PFKFB4 kinase activity, Method B (ADP-Glo Kinase Assay).
Settings: not given
The class given is biochemical. The text has this: (§1) The PFKFB3 (placenta form) and PFKFB4 were produced and purified to homogeneity from E. coli at Biovitrum and at Sprint Bioscience. All other reagents were purchased from commercial sources. Two independent methods have been used for determination of the kinase activity of PFKFB3 (Method A and Method B). Method B has been used for determination of the kinase activity of PFKFB4.
(§2) Method B: The kinase activity of the bi-functional enzyme is readily quantified based on the production of ADP and F-2,6-P2 from ATP and F6P. The ADP is detected with a kit, ADP-Glo™ Kinase Assay^(a-e), from Promega. The assay is a luminescent ADP detection assay that measures kinase activity by quantifying the amount of ADP produced during the kinase reaction. The assay is performed in two steps; first, after the kinase reaction, an equal volume of ADP-Glo™ Reagent is added to terminate the kinase reaction and deplete the remaining ATP. Second, the Kinase Detection Reagent is added to simultaneously convert ADP to ATP and allow the newly synthesized ATP to be measured using a luciferase/luciferine reaction. The light generated is measured using a luminescence counter (1450 MicroBeta TriLux).
(§3) The assay was performed in white 384-well microtiter plates (OptiPlate, 6007299, PerkinElmer) by consecutive additions of 0.1 μL of a test compound solution (serial diluted in DMSO from compound DMSO stock solution and dispensed by acoustic dispensing from UV-star 384-well plate 7360153, VWR), 5 μL of enzyme solution and 5 μL of a substrate (fructose-6-phosphate (F6P) and adenosine-5′-triphosphate (ATP)) containing solution. […] Four reference dose response curves, one of them being the QC compound, were included in row O1-2, P1-2, and serial diluted as the test compounds. The final concentrations of all reagents in a total assay volume of 10.1 μL per well were: • 50 mM Tris-HCl at pH 8.0 • 10 mM MgCl2 • 5 mM Na2HPO4 at pH 8.0 • 81.48 nM PFKFB3 or 145 nM PFKFB4 • 8 μM ATP • 100 μM F6P (acid treated and then neutralized to remove any contaminating F-2,6-P2; see Van Schaftingen, 1984) • 0.005% Tween-20 • 1 mM dithiothreitol (DTT) • A test compound at various concentrations or controls (final DMSO concentration 0.99%)
(§4) Enzyme, compounds and controls were pre-incubated at room temperature for 15 min before the addition of substrate solution. The enzymatic reaction was allowed to proceed for 20 min (PFKFB3) or 40 min (PFKFB4) at room temperature. The reaction was terminated by the addition of 10 μL of ADP-Glo™ Reagent to all wells and the plate was incubated for 40 min at room temperature. After addition of 20 μL Kinase Detection Reagent to all wells the plate was incubated for 30 min at room temperature, followed by measurement in 1450 MicroBeta TriLux. All plates were centrifuged after each addition (room temperature, short spin, 500 RPM, Megafuge 1.0 Heraeus Instruments).
(§5) The inhibitory potency or IC50 values of test compounds on the kinase activity of PFKFB3 or PFKFB4 were calculated using a four-parameter model (model 205) in XLfit (IDBS ActivityBase XE Runner).
One may read the pIC50 as the IC50 on a negative log10 scale, so that one unit is a factor of ten. In the case of `O=S(=O)(Nc1cccc(-c2nnn[nH]2)c1)c1ccc(Br)cc1F` [Example 57, 4-Bromo-2-fluoro-N-[3-(1H-tetrazol-5-yl)phenyl]benzenesulfonamide], the pIC50 is 5.74.

The compound `Cc1c(S(=O)(=O)Nc2cccc(C(=O)O)c2)sc2c(Cl)cccc12` [Example 44, 3-{[(7-Chloro-3-methyl-1-benzothien-2-yl)sulfonyl]amino}benzoic acid] had a pIC50 of 6.70.

Take `COc1cccc2c(C)c(S(=O)(=O)Nc3cccc(C(=O)O)c3)sc12` [Example 42, 3-{[(7-Methoxy-3-methyl-1-benzothien-2-yl)sulfonyl]amino}benzoic acid]: the negative logarithm of the IC50 (pIC50) is 6.38.

`CSc1nccc(-c2ccc(S(=O)(=O)Nc3cccc(-c4nnn[nH]4)c3)s2)n1` [Example 21, 5-[2-(Methylthio)pyrimidin-4-yl]-N-[3-(1H-tetrazol-5-yl)phenyl]thiophene-2-sulfonamide] showed a pIC50 of 6.38.

For `Cc1c(S(=O)(=O)Nc2cccc(-c3nnn[nH]3)c2)sc2ccc(F)cc12` [Example 43, 5-Fluoro-3-methyl-N-[3-(1H-tetrazol-5-yl)phenyl]-1-benzothiophene-2-sulfonamide], the pIC50 is 6.77.

Turning to `O=S(=O)(Nc1cccc(-c2nnn[nH]2)c1)c1c(Cl)cc(C(F)(F)F)cc1Cl` [Example 18, 2,6-Dichloro-N-[3-(1H-tetrazol-5-yl)phenyl]-4-(trifluoromethyl)benzenesulfonamide], the pIC50 is 6.29.

Consider `COc1ccc(-c2ccc(S(=O)(=O)Nc3cccc(-c4nnn[nH]4)c3)cc2)cc1` [Example 85, 4′-Methoxy-N-[3-(1H-tetrazol-5-yl)phenyl]biphenyl-4-sulfonamide], for which the pIC50 is 5.43.

Compound `Cc1ccc(-c2ccc(S(=O)(=O)Nc3cccc(-c4nnn[nH]4)c3)s2)cc1` [Example 27, 5-(4-Methylphenyl)-N-[3-(1H-tetrazol-5-yl)phenyl]thiophene-2-sulfonamide] showed a pIC50 of 6.32.

For the compound `O=S(=O)(Nc1cccc(-c2nnn[nH]2)c1)c1ccc(-c2ccc(F)c(Cl)c2)s1` [Example 102, 5-(3-Chloro-4-fluorophenyl)-N-[3-(1H-tetrazol-5-yl)phenyl]thiophene-2-sulfonamide], the pIC50 was 6.18.

`Cc1ccc2sc(S(=O)(=O)Nc3cccc(-c4nnn[nH]4)c3)cc2c1` [Example 40, 5-Methyl-N-[3-(1H-tetrazol-5-yl)phenyl]-1-benzothiophene-2-sulfonamide]: the pIC50 is 6.85.

On to `Cc1c(S(=O)(=O)Nc2ncc(C(=O)O)s2)sc2ccc(C(C)C)cc12` [Example 7, 2-{[(5-Isopropyl-3-methyl-1-benzothien-2-yl)sulfonyl]amino}-1,3-thiazole-5-carboxylic acid], for which the pIC50 was 7.00.

As to `O=S(=O)(Nc1cccc(-c2nnn[nH]2)c1)c1ccc(-c2ccc(F)cc2F)s1` [Example 101, 5-(2,4-Difluorophenyl)-N-[3-(1H-tetrazol-5-yl)phenyl]thiophene-2-sulfonamide], the pIC50 was 6.22.

The compound `COc1ccccc1-c1ccc(S(=O)(=O)Nc2cccc(-c3nnn[nH]3)c2)s1` [Example 24, 5-(2-Methoxyphenyl)-N-[3-(1H-tetrazol-5-yl)phenyl]thiophene-2-sulfonamide] had a pIC50 of 6.18.

In the case of `O=S(=O)(Nc1cccc(-c2nnn[nH]2)c1)c1cccc(-c2ccccc2)c1` [Example 16, N-[3-(1H-Tetrazol-5-yl)phenyl]biphenyl-3-sulfonamide], the pIC50 is 6.41.

As for `Cc1c(S(=O)(=O)Nc2cccc(C(=O)O)c2O)sc2ccc(Cl)cc12` [Example 134, 3-{[(5-Chloro-3-methyl-1-benzothiophen-2-yl)sulfonyl]amino}-2-hydroxybenzoic acid], the pIC50 was 6.74.

In turn, `O=S(=O)(Nc1cccc(-c2nnn[nH]2)c1)c1ccc(-c2ccccc2Cl)s1` [Example 26, 5-(2-Chlorophenyl)-N-[3-(1H-tetrazol-5-yl)phenyl]thiophene-2-sulfonamide] gave a pIC50 of 6.12.

For another experiment, the system named is PANC-1 cells. In words: Quantification of F-2,6-P2 in PANC-1 cells. As to conditions: Homo sapiens, PANC-1; read-out: IC50 based on quantification of F-2,6-P2. The experiment is classed as cell-based. The text has this: The relative kinase (formation) and phosphatase (degradation) activities of the bi-functional enzymes PFKFB3 and PFKFB4 control the intracellular levels of the regulator F-2,6-P2, which acts as an allosteric activator of glycolysis. The levels of F-2,6-P2 have been determined in three different cancer cell lines (MCF-7, PANC-1 and NUGC-3) using the van Shaftingen assay. The assay protocols described under “Methods for measurement of enzymatic activity of PFKFB3 and PFKFB4, Method A” have been adapted for the measurement of the inhibitory effect of compounds on the kinase activity of the various isoforms of the bifunctional enzyme (endogenously expressed) in the different cell lines. The modifications are described in the protocol below. All reagents were purchased from commercial sources or prepared inhouse.
Cell Line B (PANC-1, Human Pancreatic Carcinoma Cell Line)
• Cells: PANC-1 (ATCC-CRL-1469). Lot. no: 58564651. • Growth medium: Dulbecco's Modified Eagle's Medium, DMEM, ATCC-30-2002 10% FBS, Invitrogen, 10106-169
Cells were seeded at a concentration of 250 000 cells/mL in 100 μL growth medium (25 000 cells/well)
Starvation medium: DMEM/F12 without phenol red and glucose free, SVA, 991373 0.25% FBS, Invitrogen, 10106-169
Induction medium: DMEM/F12 without phenol red and glucose free, SVA, 991373 0.25% FBS, Invitrogen, 10106-169 (same as starvation medium)
Cells were seeded in 96-well Corning Costar tissue culture plates (CLS3595, Sigma-Aldrich) using the concentrations specified above for the three different cell lines A-C and incubated over night at 37° C. and 5% CO2. Row A was left empty. Next day the growth medium was discarded and replaced with 100 μL starvation medium. The plates were incubated for 18 h at 37° C. and 5% CO2. After 18 h of starvation the cells were induced with 100 μL compound or control solutions. Compounds were either tested in two concentrations (50 μM and 10 μM) or in dose response curves starting from 50 μM and the final DMSO concentration in assay plates was 0.5%. Also a dose response curve of a reference inhibitor was included in row H on each plate. All compounds were tested in duplicate plates. Compounds (in 96 well CLS 3365, Sigma-Aldrich) were serial diluted in DMSO from 10 mM compound DMSO stock solutions with Janus (automated liquid handling workstation from PerkinElmer). 5 μL were transferred to a Greiner deep well plate (736-0155, VWR) with 495 μL starvation medium. The final start concentration of compounds in the dilution plate was 100 μM, 1% DMSO. For compounds tested as single points, 10 mM compound solutions were diluted five fold in DMSO to 2 mM, followed by the transfer of 5 μL to separate dilution plates with 495 μL starvation medium. The final concentration of compounds in these dilution plates were 100 or 20 μM, respectively, and final concentration of DMSO was 1%. The plates were incubated at 37° C. and 5% CO2 for 1 h, followed by the addition of 10 μL 20 mM D-glucose in starvation medium. Controls, with and without 1 mM glucose, were included in row B. The final assay volume was 210 μL per well. After 2 h of incubation at 37° C. and 5% CO2, supernatants were discarded and the cells were lysed by the addition of 25 μL 250 mM NaOH. The plates were incubated at 37° C. and 5% CO2 for 5 min followed by an addition of 75 μL MilliQ dH2O. The supernatants were further diluted with 210 μL MilliQ dH2O to a final concentration of 20 mM NaOH. 200 μL were transferred to NUNC 96-well plates (7322661, VWR) and the plates were sealed and stored at −20° C. until analysis.
The amount of F-2,6-P2 was quantified based on the coupled enzymatic reaction described by Van Schaftingen. If necessary the samples were further diluted in 20 mM NaOH before quantification. Plates stored at −20° C. were thawed and the F-2,6-P2 quantification was initiated by transferring 40 μL from each well of the NUNC plate to the corresponding position in a trans-parent 96-well SpectraPlate-MB (6005649, PerkinElmer). […]
For `Cc1ccc(-c2ccc(S(=O)(=O)Nc3cccc(-c4nnn[nH]4)c3)s2)cc1` [Example 27, 5-(4-Methylphenyl)-N-[3-(1H-tetrazol-5-yl)phenyl]thiophene-2-sulfonamide], the pIC50 was 4.86.

With `COc1ccccc1-c1ccc(S(=O)(=O)Nc2cccc(-c3nnn[nH]3)c2)s1` [Example 24, 5-(2-Methoxyphenyl)-N-[3-(1H-tetrazol-5-yl)phenyl]thiophene-2-sulfonamide], the pIC50 was 4.96.

In a further experiment the target is PFKFB3 (Homo sapiens (Human), UniProt Q16875). The experiment is described as follows: PFKFB3 kinase activity, Method B (ADP-Glo Kinase Assay). The experiment is classed as biochemical.
Sequence of PFKFB3 (Q16875 whole entry): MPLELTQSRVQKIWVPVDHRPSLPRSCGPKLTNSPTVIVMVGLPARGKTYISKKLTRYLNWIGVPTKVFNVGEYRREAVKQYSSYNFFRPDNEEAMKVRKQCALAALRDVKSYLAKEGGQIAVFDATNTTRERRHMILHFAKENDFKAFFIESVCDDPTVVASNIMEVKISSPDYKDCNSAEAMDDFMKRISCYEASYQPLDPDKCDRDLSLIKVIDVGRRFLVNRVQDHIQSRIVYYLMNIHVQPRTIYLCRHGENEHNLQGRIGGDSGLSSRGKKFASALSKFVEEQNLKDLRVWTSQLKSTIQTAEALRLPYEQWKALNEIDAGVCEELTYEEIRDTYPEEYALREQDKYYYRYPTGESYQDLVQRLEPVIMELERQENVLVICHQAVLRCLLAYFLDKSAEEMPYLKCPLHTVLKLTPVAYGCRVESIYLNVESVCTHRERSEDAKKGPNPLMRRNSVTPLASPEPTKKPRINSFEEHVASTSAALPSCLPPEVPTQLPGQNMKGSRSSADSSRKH
Settings: not given
Excerpt: as §1, §2, §3, §4, §5
In the case of `O=S(=O)(Nc1cccc(-c2nnn[nH]2)c1)c1cc(Cl)c(Cl)cc1Cl` [Example 71, 2,4,5-Trichloro-N-[3-(1H-tetrazol-5-yl)phenyl]benzenesulfonamide], the pIC50 is 5.62.

Regarding `O=S(=O)(Nc1cccc(-c2nnn[nH]2)c1)c1ccc(Cl)c2nonc12` [Example 73, 7-Chloro-N-[3-(1H-tetrazol-5-yl)phenyl]-2,1,3-benzoxadiazole-4-sulfonamide], the pIC50 was 6.24.

Compound `O=S(=O)(Nc1cccc(-c2nnn[nH]2)c1)c1ccc(-c2ccccc2)s1` [Example 60, 5-Phenyl-N-[3-(1H-tetrazol-5-yl)phenyl]thiophene-2-sulfonamide] gave a pIC50 of 5.89.

The compound `O=S(=O)(Nc1cccc(-c2nnn[nH]2)c1)c1ccc(-c2ccc(Cl)c(Cl)c2)cc1` [Example 86, 3′,4′-Dichloro-N-[3-(1H-tetrazol-5-yl)phenyl]biphenyl-4-sulfonamide] gave a pIC50 of 5.55.
